Experimental data: the supplement of paper PMC10307832

Experiments:
Assay in all cases: relative viability (nuclei count vs DMSO), 5 days (fraction); higher = more cells survive
NCI-H2228 = test system: NCI-H2228
Summary of the method: (§1)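 Values are medians from duplicate plates. Each reflects relative viability, defined as the nuclei count of treated wells over that of vehicle wells. Lung cancer cell lines in 1536-well plates were pin-tool dosed one day after seeding with one drug alone or with a fixed anchor-drug dose plus five library-drug doses (not always all listed) in √10 steps, then fixed, stained and imaged at 4× after 5 days.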

NCI-H1755 = test system: NCI-H1755
Summary of the method: as §1

LK-2 = test system: LK-2
Summary of the method: as §1

UMC-11 = test system: UMC-11
Summary of the method: as §1

ABC-1 = test system: ABC-1
Summary of the method: as §1

NCI-H838 = test system: NCI-H838
Summary of the method: as §1

NCI-H1355 = test system: NCI-H1355
Summary of the method: as §1

NCI-H1666 = test system: NCI-H1666
Summary of the method: as §1

NCI-H520 = test system: NCI-H520
Summary of the method: as §1

HCC-366 = test system: HCC-366
Summary of the method: as §1

NCI-H358 = test system: NCI-H358
Summary of the method: as §1

NCI-H1650 = test system: NCI-H1650
Summary of the method: as §1

201T = test system: 201T
Summary of the method: as §1

NCI-H727 = test system: NCI-H727
Summary of the method: as §1

HCC-44 = test system: HCC-44
Summary of the method: as §1

NCI-H2347 = test system: NCI-H2347
Summary of the method: as §1

HCC-78 = test system: HCC-78
Summary of the method: as §1

SW 1573 = test system: SW 1573
Summary of the method: as §1

NCI-H1734 = test system: NCI-H1734
Summary of the method: as §1

BEN = test system: BEN
Summary of the method: as §1

NCI-H2009 = test system: NCI-H2009
Summary of the method: as §1

NCI-H2405 = test system: NCI-H2405
Summary of the method: as §1

LOU-NH91 = test system: LOU-NH91
Summary of the method: as §1

SMILES: O=C(O)CCCCC(CCSCc1ccccc1)SCc1ccccc1 (centres undefined) [CPI-613] + O=C(CCCCCCC(=O)Nc1ccccc1)NO [Vorinostat] (partner 1 µM)
- relative viability (NCI-H2228; first compound 5 µM): 0.776
- relative viability (NCI-H2228; first compound 15.81 µM): 0.402
- relative viability (NCI-H2228; first compound 50 µM): 0.559
- relative viability (NCI-H2228; first compound 158.11 µM): 0.229
- relative viability (NCI-H2228; first compound 500 µM): 0.0377
- relative viability (NCI-H1755; first compound 5 µM): 0.736
- relative viability (NCI-H1755; first compound 15.81 µM): 0.707
- relative viability (NCI-H1755; first compound 50 µM): 0.675
- relative viability (NCI-H1755; first compound 158.11 µM): 0.577
- relative viability (NCI-H1755; first compound 500 µM): 0.608
- relative viability (LK-2; first compound 5 µM): 0.333
- relative viability (LK-2; first compound 15.81 µM): 0.278
- relative viability (LK-2; first compound 50 µM): 0.344
- relative viability (LK-2; first compound 158.11 µM): 0.553
- relative viability (LK-2; first compound 500 µM): 0.28
- relative viability (UMC-11; first compound 5 µM): 0.355
- relative viability (UMC-11; first compound 15.81 µM): 0.358
- relative viability (UMC-11; first compound 50 µM): 0.39
- relative viability (UMC-11; first compound 158.11 µM): 0.126
- relative viability (UMC-11; first compound 500 µM): 0.1
- relative viability (ABC-1; first compound 5 µM): 1.21
- relative viability (ABC-1; first compound 15.81 µM): 0.811
- relative viability (ABC-1; first compound 50 µM): 0.995
- relative viability (ABC-1; first compound 158.11 µM): 0.701
- relative viability (ABC-1; first compound 500 µM): 0.318
- relative viability (NCI-H838; first compound 5 µM): 0.675
- relative viability (NCI-H838; first compound 15.81 µM): 0.625
- relative viability (NCI-H838; first compound 50 µM): 0.797
- relative viability (NCI-H838; first compound 158.11 µM): 0.3
- relative viability (NCI-H838; first compound 500 µM): 0.107
- relative viability (NCI-H1355; first compound 5 µM): 0.568
- relative viability (NCI-H1355; first compound 15.81 µM): 0.547
- relative viability (NCI-H1355; first compound 50 µM): 0.537
- relative viability (NCI-H1355; first compound 158.11 µM): 0.452
- relative viability (NCI-H1355; first compound 500 µM): 0.0985
- relative viability (NCI-H1666; first compound 5 µM): 1.07
- relative viability (NCI-H1666; first compound 15.81 µM): 1.01
- relative viability (NCI-H1666; first compound 50 µM): 1.01
- relative viability (NCI-H1666; first compound 158.11 µM): 0.542
- relative viability (NCI-H1666; first compound 500 µM): 0.417
- relative viability (NCI-H520; first compound 5 µM): 0.831
- relative viability (NCI-H520; first compound 15.81 µM): 0.693
- relative viability (NCI-H520; first compound 50 µM): 0.657
- relative viability (NCI-H520; first compound 158.11 µM): 0.325
- relative viability (NCI-H520; first compound 500 µM): 0.11
- relative viability (HCC-366; first compound 5 µM): 0.371
- relative viability (HCC-366; first compound 15.81 µM): 0.314
- relative viability (HCC-366; first compound 50 µM): 0.291
- relative viability (HCC-366; first compound 158.11 µM): 0.0721
- relative viability (HCC-366; first compound 500 µM): 0.0058
- relative viability (NCI-H358; first compound 5 µM): 0.683
- relative viability (NCI-H358; first compound 15.81 µM): 0.561
- relative viability (NCI-H358; first compound 50 µM): 0.62
- relative viability (NCI-H358; first compound 158.11 µM): 0.0809
- relative viability (NCI-H358; first compound 500 µM): 0.0166
- relative viability (NCI-H1650; first compound 5 µM): 0.521
- relative viability (NCI-H1650; first compound 15.81 µM): 0.469
- relative viability (NCI-H1650; first compound 50 µM): 0.507
- relative viability (NCI-H1650; first compound 158.11 µM): 0.142
- relative viability (NCI-H1650; first compound 500 µM): 0.0205
- relative viability (201T; first compound 5 µM): 0.961
- relative viability (201T; first compound 15.81 µM): 0.865
- relative viability (201T; first compound 50 µM): 0.958
- relative viability (201T; first compound 158.11 µM): 0.328
- relative viability (201T; first compound 500 µM): 0.368
- relative viability (NCI-H727; first compound 5 µM): 1.1
- relative viability (NCI-H727; first compound 15.81 µM): 1.07
- relative viability (NCI-H727; first compound 50 µM): 1.04
- relative viability (NCI-H727; first compound 158.11 µM): 1.01
- relative viability (NCI-H727; first compound 500 µM): 0.642
- relative viability (HCC-44; first compound 5 µM): 1.01
- relative viability (HCC-44; first compound 15.81 µM): 1.11
- relative viability (HCC-44; first compound 50 µM): 1.08
- relative viability (HCC-44; first compound 158.11 µM): 0.579
- relative viability (HCC-44; first compound 500 µM): 0.265
- relative viability (NCI-H2347; first compound 5 µM): 0.513
- relative viability (NCI-H2347; first compound 15.81 µM): 0.494
- relative viability (NCI-H2347; first compound 50 µM): 0.596
- relative viability (NCI-H2347; first compound 158.11 µM): 0.387
- relative viability (NCI-H2347; first compound 500 µM): 0.235
- relative viability (HCC-78; first compound 15.81 µM): 0.373
- relative viability (HCC-78; first compound 50 µM): 0.361
- relative viability (HCC-78; first compound 158.11 µM): 0.393
- relative viability (HCC-78; first compound 500 µM): 0.479
- relative viability (SW 1573; first compound 5 µM): 0.749
- relative viability (SW 1573; first compound 15.81 µM): 0.635
- relative viability (SW 1573; first compound 50 µM): 0.456
- relative viability (SW 1573; first compound 158.11 µM): 0.165
- relative viability (SW 1573; first compound 500 µM): 0.0536
- relative viability (NCI-H1734; first compound 5 µM): 0.66
- relative viability (NCI-H1734; first compound 15.81 µM): 0.768
- relative viability (NCI-H1734; first compound 50 µM): 0.704
- relative viability (NCI-H1734; first compound 158.11 µM): 0.147
- relative viability (NCI-H1734; first compound 500 µM): 0.107
- relative viability (BEN; first compound 5 µM): 0.491
- relative viability (BEN; first compound 15.81 µM): 0.529
- relative viability (BEN; first compound 50 µM): 0.558
- relative viability (BEN; first compound 158.11 µM): 0.593
- relative viability (BEN; first compound 500 µM): 0.607
- relative viability (NCI-H2009; first compound 5 µM): 0.726
- relative viability (NCI-H2009; first compound 15.81 µM): 0.672
- relative viability (NCI-H2009; first compound 50 µM): 0.657
- relative viability (NCI-H2009; first compound 158.11 µM): 0.152
- relative viability (NCI-H2009; first compound 500 µM): 0.0308
- relative viability (NCI-H2405; first compound 5 µM): 1.09
- relative viability (NCI-H2405; first compound 15.81 µM): 0.79
- relative viability (NCI-H2405; first compound 50 µM): 0.787
- relative viability (NCI-H2405; first compound 158.11 µM): 0.569
- relative viability (NCI-H2405; first compound 500 µM): 0.468
- relative viability (LOU-NH91; first compound 5 µM): 0.891
- relative viability (LOU-NH91; first compound 15.81 µM): 0.844
- relative viability (LOU-NH91; first compound 50 µM): 0.871
- relative viability (LOU-NH91; first compound 158.11 µM): 0.837
- relative viability (LOU-NH91; first compound 500 µM): 0.622
